Test results taken from PubChem BioAssay (NCI).
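In this assay, cells in 96-well plates receive the compound at five concentrations for 48 hours. Endpoints are linearly interpolated between the surrounding concentrations. GI50 marks 50% less growth. TGI denotes the concentration required for complete inhibition of growth.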

Tests used:
Test in all cases: inhibition of tumour cell growth, NCI panel, 48 h
DU-145 prostate = test system: DU-145 prostate
NCI/ADR-RES ovarian = test system: NCI/ADR-RES ovarian
EKVX NSCLC = test system: EKVX NSCLC
LOX IMVI melanoma = test system: LOX IMVI melanoma
SF-295 CNS = test system: SF-295 CNS
SF-539 CNS = test system: SF-539 CNS
HCT-15 colon = test system: HCT-15 colon
A498 renal = test system: A498 renal
SR leukemia = test system: SR leukemia
ACHN renal = test system: ACHN renal
SNB-19 CNS = test system: SNB-19 CNS
UACC-62 melanoma = test system: UACC-62 melanoma
MOLT-4 leukemia = test system: MOLT-4 leukemia
SK-MEL-5 melanoma = test system: SK-MEL-5 melanoma
SK-OV-3 ovarian = test system: SK-OV-3 ovarian
SNB-75 CNS = test system: SNB-75 CNS
SN12C renal = test system: SN12C renal
BT-549 breast = test system: BT-549 breast
OVCAR-8 ovarian = test system: OVCAR-8 ovarian
OVCAR-5 ovarian = test system: OVCAR-5 ovarian
SK-MEL-28 melanoma = test system: SK-MEL-28 melanoma
NCI-H226 lung = test system: NCI-H226 lung
UACC-257 melanoma = test system: UACC-257 melanoma
SF-268 CNS = test system: SF-268 CNS
SK-MEL-2 melanoma = test system: SK-MEL-2 melanoma
OVCAR-3 ovarian = test system: OVCAR-3 ovarian
COLO 205 colon = test system: COLO 205 colon
MDA-MB-231 breast = test system: MDA-MB-231 breast
MCF7 breast = test system: MCF7 breast
M14 melanoma = test system: M14 melanoma
MALME-3M melanoma = test system: MALME-3M melanoma
RPMI-8226 leukemia = test system: RPMI-8226 leukemia
TK-10 renal = test system: TK-10 renal
K-562 leukemia = test system: K-562 leukemia
SW-620 colon = test system: SW-620 colon
A549 NSCLC = test system: A549 NSCLC
NCI-H460 lung = test system: NCI-H460 lung
UO-31 renal = test system: UO-31 renal
U251 CNS = test system: U251 CNS
HT29 colon = test system: HT29 colon
NCI-H522 lung = test system: NCI-H522 lung
T-47D breast = test system: T-47D breast
KM12 colon = test system: KM12 colon
HL-60(TB) leukemia = test system: HL-60(TB) leukemia
PC-3 prostate = test system: PC-3 prostate
HCT-116 colon = test system: HCT-116 colon
IGROV1 ovarian = test system: IGROV1 ovarian
HCC-2998 colon = test system: HCC-2998 colon
RXF 393 renal = test system: RXF 393 renal
CAKI-1 renal = test system: CAKI-1 renal
CCRF-CEM leukemia = test system: CCRF-CEM leukemia
MDA-MB-435 = test system: MDA-MB-435
786-0 renal = test system: 786-0 renal
OVCAR-4 ovarian = test system: OVCAR-4 ovarian
HOP-62 NSCLC = test system: HOP-62 NSCLC
NCI-H23 lung = test system: NCI-H23 lung
HOP-92 NSCLC = test system: HOP-92 NSCLC
HS 578T breast = test system: HS 578T breast

For `O=C1C(Cl)=C(NCc2ccco2)C(=O)c2ccccc21`, the GI50 (DU-145 prostate) was 2.6 µM, the TGI (DU-145 prostate) was 6.27 µM and the GI50 (NCI/ADR-RES ovarian) was 31.2 µM. It also gave a TGI (NCI/ADR-RES ovarian) of over 100 µM, a GI50 (EKVX NSCLC) of 37.3 µM and a TGI (EKVX NSCLC) of over 100 µM. For the same molecule, the GI50 (LOX IMVI melanoma) was 7.1 µM, the TGI (LOX IMVI melanoma) was 72.7 µM and the GI50 (SF-295 CNS) was 8.24 µM. The TGI (SF-295 CNS) was 41.6 µM, the GI50 (SF-539 CNS) was 20.9 µM and the TGI (SF-539 CNS) was 54 µM. It also gave a GI50 (HCT-15 colon) of 4.77 µM, a TGI (HCT-15 colon) of 56.5 µM and a GI50 (A498 renal) of 17.7 µM. For the same molecule, the TGI (A498 renal) was 59.2 µM, the GI50 (SR leukemia) was 20.6 µM and the TGI (SR leukemia) was over 100 µM. For the same molecule, the GI50 (ACHN renal) was 27 µM, the TGI (ACHN renal) was over 100 µM and the GI50 (SNB-19 CNS) was 24.3 µM. The TGI (SNB-19 CNS) was over 100 µM, the GI50 (UACC-62 melanoma) was 3.98 µM and the TGI (UACC-62 melanoma) was 13.6 µM. It also gave a GI50 (MOLT-4 leukemia) of 52.1 µM, a TGI (MOLT-4 leukemia) of over 100 µM and a GI50 (SK-MEL-5 melanoma) of 1.62 µM. The TGI (SK-MEL-5 melanoma) was 3.11 µM, the GI50 (SK-OV-3 ovarian) was 40.3 µM and the TGI (SK-OV-3 ovarian) was over 100 µM. The GI50 (SNB-75 CNS) was 2.25 µM, the TGI (SNB-75 CNS) was 7.53 µM and the GI50 (SN12C renal) was 25.9 µM. The TGI (SN12C renal) was over 100 µM, the GI50 (BT-549 breast) was 22 µM and the TGI (BT-549 breast) was 50.7 µM. The GI50 (OVCAR-8 ovarian) was 22.5 µM, the TGI (OVCAR-8 ovarian) was over 100 µM and the GI50 (OVCAR-5 ovarian) was 33.8 µM. For the same molecule, the TGI (OVCAR-5 ovarian) was over 65.1 µM, the GI50 (SK-MEL-28 melanoma) was 6.89 µM and the TGI (SK-MEL-28 melanoma) was 17.8 µM. It also gave a GI50 (NCI-H226 lung) of 18.8 µM, a TGI (NCI-H226 lung) of over 60.7 µM and a GI50 (UACC-257 melanoma) of 7.81 µM. The TGI (UACC-257 melanoma) was 40 µM, the GI50 (SF-268 CNS) was 22.5 µM and the TGI (SF-268 CNS) was 81.9 µM. The GI50 (SK-MEL-2 melanoma) was 35 µM, the TGI (SK-MEL-2 melanoma) was over 100 µM and the GI50 (OVCAR-3 ovarian) was 4.93 µM. For the same molecule, the TGI (OVCAR-3 ovarian) was 19.4 µM, the GI50 (COLO 205 colon) was 9.11 µM and the TGI (COLO 205 colon) was 26.4 µM. It also gave a GI50 (MDA-MB-231 breast) of 18.4 µM, a TGI (MDA-MB-231 breast) of over 81.5 µM and a GI50 (MCF7 breast) of 2.39 µM. It also gave a TGI (MCF7 breast) of over 27.9 µM, a GI50 (M14 melanoma) of 4.31 µM and a TGI (M14 melanoma) of 12.1 µM. For the same molecule, the GI50 (MALME-3M melanoma) was 2.03 µM, the TGI (MALME-3M melanoma) was 4.37 µM and the GI50 (RPMI-8226 leukemia) was 10.2 µM. The TGI (RPMI-8226 leukemia) was over 100 µM, the GI50 (TK-10 renal) was 22.1 µM and the TGI (TK-10 renal) was over 100 µM. It also gave a GI50 (K-562 leukemia) of 4.55 µM, a TGI (K-562 leukemia) of over 100 µM and a GI50 (SW-620 colon) of 18.3 µM. It also gave a TGI (SW-620 colon) of over 100 µM, a GI50 (A549 NSCLC) of 7.61 µM and a TGI (A549 NSCLC) of 31.1 µM. For the same molecule, the GI50 (NCI-H460 lung) was 4.78 µM, the TGI (NCI-H460 lung) was over 100 µM and the GI50 (UO-31 renal) was 38.5 µM. The TGI (UO-31 renal) was over 100 µM, the GI50 (U251 CNS) was 17 µM and the TGI (U251 CNS) was over 93.7 µM. The GI50 (HT29 colon) was 6.14 µM, the TGI (HT29 colon) was over 100 µM and the GI50 (NCI-H522 lung) was 7.15 µM. For the same molecule, the TGI (NCI-H522 lung) was over 55.2 µM, the GI50 (T-47D breast) was 10.2 µM and the TGI (T-47D breast) was 73.7 µM. It also gave a GI50 (KM12 colon) of 8.67 µM, a TGI (KM12 colon) of over 100 µM and a GI50 (HL-60(TB) leukemia) of 7.63 µM. The TGI (HL-60(TB) leukemia) was over 76.9 µM, the GI50 (PC-3 prostate) was 33.6 µM and the TGI (PC-3 prostate) was over 100 µM. For the same molecule, the GI50 (HCT-116 colon) was 7.09 µM, the TGI (HCT-116 colon) was 49.5 µM and the GI50 (IGROV1 ovarian) was 10.9 µM. For the same molecule, the TGI (IGROV1 ovarian) was 44 µM, the GI50 (HCC-2998 colon) was 21.7 µM and the TGI (HCC-2998 colon) was 50.8 µM. It also gave a GI50 (RXF 393 renal) of 21.6 µM, a TGI (RXF 393 renal) of 50.6 µM and a GI50 (CAKI-1 renal) of 58.1 µM. For the same molecule, the TGI (CAKI-1 renal) was over 100 µM, the GI50 (CCRF-CEM leukemia) was 9.88 µM and the TGI (CCRF-CEM leukemia) was over 100 µM. For the same molecule, the GI50 (MDA-MB-435) was 2.06 µM, the TGI (MDA-MB-435) was 3.89 µM and the GI50 (786-0 renal) was 29 µM. It also gave a TGI (786-0 renal) of 72.3 µM, a GI50 (OVCAR-4 ovarian) of 6.91 µM and a TGI (OVCAR-4 ovarian) of 19.2 µM. The GI50 (HOP-62 NSCLC) was 17.1 µM, the TGI (HOP-62 NSCLC) was 43.6 µM and the GI50 (NCI-H23 lung) was 2.5 µM. The TGI (NCI-H23 lung) was 10.4 µM, the GI50 (HOP-92 NSCLC) was 23.2 µM and the TGI (HOP-92 NSCLC) was 62.2 µM. It also gave a GI50 (HS 578T breast) of 3.2 µM and a TGI (HS 578T breast) of 10.1 µM.
